Test [1] deals with granulocytes de lapins. Description: Anti-inflammatory activity: leukotriene B4 release from A 23187-stimulated granulocytes (RIA). Type of test: cell-based. The conditions noted are these: stimulation by calcium ionophore A 23187, mean of 3 independent measurements, versus control, read-out: pouvoir inhibiteur (leucotriènes B₄ libérés). From the text:
Les mesures sont réalisées sur granulocytes de lapins. Les granulocytes isolés sont stimulés in vitro par l'ionophore calcique (A 23187). Les leucotriènes B₄ libérés dans le milieu extracellulaire sont mesurés par Radio Immuno Assay (RIA). Les résultats (moyennes de 3 mesures indépendantes) sont exprimés en pourcentage d'inhibition par rapport au témoin.

In test [2] the test system is homogénats de cerveaux de rats. Description: Induced lipid peroxidation (Fe2+ - ascorbate) in rat brain homogenates (MDA). Type of test: biochemical. The conditions noted are these: ratio versus probucol, induced peroxidation (Fe²⁺ - ascorbate). The procedure:
L'action des composés utilisés selon l'invention, susceptibles de piéger les radicaux ·OH, a été étudiée d'une part, sur la peroxydation spontanée des lipides et d'autre part, sur la peroxydation induite par le système Fe²⁺ - ascorbate (10 µM - 250 µM), et ce, sur des homogénats de cerveaux de rats.
Lors de la mesure de la peroxydation lipidique spontanée, les homogénats de cerveau de rats sont placés en présence ou en absence des composés à tester durant 60 minutes à 37°C. La réaction est arrêtée à 0°C et le dosage du malondialdéhyde est effectué à l'aide d'acide thiobarbiturique. La peroxydation lipidique est déterminée par les substances réagissant avec l'acide thiobarbiturique exprimées en nanomoles de malondialdéhyde (MDA). Les concentrations des composés testés inhibant de 50 % la peroxydation du substrat sont calculées. Il est apparu que les composés de formule (I) utilisés selon l'invention possèdent une activité antiperoxydante particulièrement intense puisqu'ils possèdent une activité antiperoxydante nettement plus importante que le probucol et la vitamine E, qui est l'antioxydant naturel de l'organisme humain.
Lors de la mesure de la peroxydation lipidique induite, la méthodologie est identique à celle précédemment décrite à l'exception de l'addition à l'homogénat du système inducteur de radicaux : Fe²⁺ - ascorbate. […]

Test [3] has as its system agrégation plaquettaire (plasma de lapin enrichi en plaquettes). In words: Anti-aggregant activity: platelet aggregation induced by sodium arachidonate. Type of test: cell-based. The conditions noted are these: aggregation induced by arachidonate de sodium (50 µg/ml); rabbit platelet-rich plasma; read-out: concentration minimale active. How it is done: Dans cette étude, les composés de l'invention (100 µg/ml) ont été testés dans le but de quantifier leur pouvoir d'inhibition du maximum non-réversible d'agrégation plaquettaire (plasma de lapin enrichi en plaquettes) induite par l'arachidonate de sodium (50 µg/ml). Ainsi, la concentration minimale active pour le composé de l'exemple 17 est de 30 µM.

Test [4] deals with LDL natives. Description: Protection against LDL oxidation (Cu2+ system, 24 h incubation, FPLC analysis). Type of test: biochemical. The conditions noted are these: 10⁻⁵ M, 24 h incubation with native LDL and Cu²⁺ system, compared with probucol. The procedure:
La capacité des composés de l'invention à diminuer les proportions de LDL oxydées a été mesurée de la façon suivante : on réalise une incubation de 24 heures regroupant des LDL natives, un système Cu²⁺ générateur de radicaux libres et les composés à tester. Les résultats sont obtenus après analyse du milieu par une technique chromatographique haute performance : la FPLC (Fast Protein Liquid Chromatography). Le pouvoir protecteur du composé testé est déterminé après comparaison du chromatogramme obtenu avec celui du témoin positif de référence : le probucol. Il apparaît clairement que les composés de l'invention ont un pouvoir protecteur très important. A titre de comparaison, pour une concentration de 10⁻⁵ M, le niveau de protection obtenu pour les composés de l'invention dépasse celui du probucol.

Results on one compound are retold here after patent EP0624575A1, “Substituted indoles and pharmaceutical compositions containing them” (ADIR ET COMPAGNIE, priority 1993, dated 1994).

As for `CCCCN(C(=O)c1cc2cc(O)ccc2n1C)c1ccccc1` [exemple 17, N-(n-Butyl)-N-phényl-(5-hydroxy-1-méthylindol-2-yl)carboxamide], the inhibition at 10 µM in test [1] stood at 51%. Also, in test [2], the Ratio probucol is 6. The minimal effective concentration in test [3] was 30 µM. For the same compound, the “pouvoir protecteur vis-à-vis d'un système oxydant des LDL” value in test [4] is recorded as “pratiquement total”.
